From patent US8987301B2, “Heteroarylaminoquinolines as TGF-beta receptor kinase inhibitors” (Merck Patent GmbH, priority 2009, dated 2015)

Target: T1, TβR (GST-ALK5) (Homo sapiens, UniProt P36897)
T1 sequence (P36897 34-503): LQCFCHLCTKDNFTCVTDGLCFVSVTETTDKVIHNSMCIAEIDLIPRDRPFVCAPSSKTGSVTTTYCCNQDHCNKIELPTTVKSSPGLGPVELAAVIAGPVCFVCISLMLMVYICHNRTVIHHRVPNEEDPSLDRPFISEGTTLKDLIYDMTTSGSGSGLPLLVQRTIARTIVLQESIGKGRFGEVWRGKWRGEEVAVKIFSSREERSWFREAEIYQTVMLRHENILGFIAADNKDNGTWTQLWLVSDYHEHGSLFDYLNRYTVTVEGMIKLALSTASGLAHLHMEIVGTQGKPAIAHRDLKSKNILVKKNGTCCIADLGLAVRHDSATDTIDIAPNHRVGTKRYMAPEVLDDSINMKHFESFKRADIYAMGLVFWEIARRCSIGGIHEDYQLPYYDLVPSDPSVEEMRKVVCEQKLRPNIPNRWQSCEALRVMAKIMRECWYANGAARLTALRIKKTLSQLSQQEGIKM
Assay: In-vitro (enzyme) flashplate kinase assay, TβR activity
Type: biochemical
Settings: GST-ALK5, GST-SMAD2 substrate, 3 mM ATP
Procedure: In-Vitro (Enzyme) Assay for Determination of the Efficacy of Inhibitors of the Inhibition of TGF-Beta-Mediated Effects
The kinase assay was carried out as 384-well flashplate assay. […] The reaction was stopped using 25 μl of 200 mM EDTA solution, filtered with suction at room temperature after 30 min, and the wells were washed with 3 times 100 μl of 0.9% NaCl solution. Radioactivity was measured in the TopCount. The IC50 values were calculated using RS1. Above and below, all temperatures were indicated in ° C.

Compound | IC50 [nM]
Nc1ncnc(Nc2cc(-c3cc(Cl)ccc3F)nc3ccccc23)n1 [compound 078] | < 500
Fc1ccc(Br)cc1-c1cc(Nc2ccncc2)c2ccccc2n1 [compound 084] | < 500
CC(=O)OCC(=O)Nc1cnccc1Nc1cc(-c2cc(Cl)ccc2F)nc2ccccc12 [compound 085] | < 500
COCC(=O)Nc1cnccc1Nc1cc(-c2cc(Cl)ccc2F)nc2ccccc12 [compound 086] | < 500
Fc1ccc(Cl)cc1-c1cc(Nc2cnncc2Nc2cc(-c3cc(Cl)ccc3F)nc3ccccc23)c2ccccc2n1 [compound 087] | > 10000
CC(=O)OC(C)(C)C(=O)Nc1cnccc1Nc1cc(-c2cc(Cl)ccc2F)nc2ccccc12 [compound 088] | 1000 to 10000
COCc1nc2cnccc2n1-c1cc(-c2cc(Cl)ccc2F)nc2ccccc12 [compound 089, 2-(5-Chloro-2-fluoro-phenyl)-4-(2-methoxymethyl-imidazo[4,5-c]pyridin-1-yl)-quinoline] | < 500
COc1cnccc1Nc1cc(-c2cc(Cl)ccc2F)nc2ccccc12 [compound 090, [2-(5-Chloro-2-fluoro-phenyl)-quinolin-4-yl]-(3-methoxy-pyridin-4-yl)-amine] | < 500
CN(C)CCCc1nc2cnccc2n1-c1cc(-c2cc(Cl)ccc2F)nc2ccccc12 [compound 091] | 1000 to 10000
Nc1cnncc1Nc1cc(-c2cc(Cl)ccc2F)nc2ccccc12 [compound 092] | 1000 to 10000
CC(C)(C)Sc1cnccc1Nc1cc(-c2cc(Cl)ccc2F)nc2ccccc12 [compound 094] | 500 to 1000
Fc1ccc(Cl)cc1-c1cc(Nc2ccncc2)c2cc3c(cc2n1)OCO3 [compound 095] | > 10000
CC(C)(C)S(=O)(=O)c1cnccc1Nc1cc(-c2cc(Cl)ccc2F)nc2ccccc12 [compound 096] | > 10000
Oc1ccc2c(Nc3cc(-c4cc(Cl)ccc4F)nc4ccccc34)ccnc2c1 [compound 098] | 500 to 1000
CCOc1cc(Nc2cc(-c3cc(Cl)ccc3F)nc3ccccc23)ccn1 [compound 101] | > 10000
CN(C)CCCNc1cc(Nc2cc(-c3cc(Cl)ccc3F)nc3ccccc23)cc(Cl)n1 [compound 102] | 1000 to 10000

Compound | IC50 [nM]
CN1CCN(c2cc(Nc3cc(-c4cc(Cl)ccc4F)nc4ccccc34)ncn2)CC1 [compound 103] | > 10000
COc1cc(Nc2cc(-c3cc(Cl)ccc3F)nc3ccccc23)ncn1 [compound 104] | > 10000
Fc1ccc(Cl)cc1-c1cc(Nc2cc(N3CCOCC3)ncn2)c2ccccc2n1 [compound 106] | > 10000
CC(=O)Nc1cc(Nc2cc(-c3cc(Cl)ccc3F)nc3ccccc23)ccn1 [compound 107] | < 500
Clc1ccc(-c2cc(Nc3ccncc3)c3ccccc3n2)cc1Cl [compound 108] | > 10000
O=C(CO)Nc1cnccc1Nc1cc(-c2cc(Cl)ccc2F)nc2ccccc12 [compound 109] | 500 to 1000
COC(=O)c1cnccc1Nc1cc(-c2cc(Cl)ccc2F)nc2ccccc12 [compound 116] | < 500
Nc1nc(N)nc(Nc2cc(-c3cc(Cl)ccc3F)nc3ccccc23)n1 [compound 117] | 1000 to 10000
CNC(=O)c1cnccc1Nc1cc(-c2cc(Cl)ccc2F)nc2ccccc12 [compound 119] | < 500
OCc1cnccc1Nc1cc(-c2cc(Cl)ccc2F)nc2ccccc12 [compound 120] | < 500
N#Cc1cncnc1Nc1cc(-c2cc(Cl)ccc2F)nc2ccccc12 [compound 122] | < 500
CN(C)CCNC(=O)c1cnccc1Nc1cc(-c2cc(Cl)ccc2F)nc2ccccc12 [compound 123] | < 500
O=C(O)c1cc(Nc2cc(-c3cc(Cl)ccc3F)nc3ccccc23)ccn1 [compound 124] | 1000 to 10000
CN1CCC(NC(=O)c2cnccc2Nc2cc(-c3cc(Cl)ccc3F)nc3ccccc23)CC1 [compound 125] | < 500
CN1CCN(C(=O)c2cnccc2Nc2cc(-c3cc(Cl)ccc3F)nc3ccccc23)CC1 [compound 126] | 1000 to 10000
OCc1cnccc1Nc1cc(-c2ccccc2F)nc2ccccc12 [compound 127] | < 500

More lines, now with the values ahead:

IC50 [nM] | Compound
1000 to 10000 | CN(C)c1cccc(-c2cc(Nc3ccncc3)c3ccccc3n2)c1 [compound 079]
> 10000 | CN(C)c1cccc(-c2cc(Nc3cc(N)ncn3)c3ccccc3n2)c1 [compound 080]
> 10000 | CN(C)c1cccc(-c2cc(Nc3ccncn3)c3ccccc3n2)c1 [compound 081]
1000 to 10000 | O=c1[nH]c2cnccc2n(-c2cc(-c3cc(Cl)ccc3F)nc3ccccc23)c1=O [compound 082]
> 10000 | FC(F)(F)c1ccccc1-c1cc(Nc2ccncc2)c2ccccc2n1 [compound 083]
> 10000 | CN1CCN(c2cc(Nc3cc(-c4cc(Cl)ccc4F)nc4ccccc34)cc(Cl)n2)CC1 [compound 097]
> 10000 | Oc1ccccc1-c1cc(Nc2ccncc2)c2ccccc2n1 [compound 099]
1000 to 10000 | CN1CCN(c2cc(Nc3cc(-c4cc(Cl)ccc4F)nc4ccccc34)ccn2)CC1 [compound 100]
< 500 | Nc1cc(Nc2cc(-c3cc(Cl)ccc3F)nc3ccccc23)ccn1 [compound 105]
1000 to 10000 | CC(=O)N(c1cc(N)ncn1)c1cc(-c2cc(Cl)ccc2F)nc2ccccc12 [compound 110]
1000 to 10000 | CC(C)(C)C(=O)Nc1cc(Nc2cc(-c3cc(Cl)ccc3F)nc3ccccc23)ccn1 [compound 111]
> 10000 | Clc1cccc(-c2cc(Nc3ccncc3)c3ccccc3n2)c1Cl [compound 112]
< 500 | CCC(=O)Nc1cc(Nc2cc(-c3cc(Cl)ccc3F)nc3ccccc23)ccn1 [compound 113]
1000 to 10000 | CC(C)(C)OC(=O)NCC(=O)Nc1cc(Nc2cc(-c3cc(Cl)ccc3F)nc3ccccc23)ccn1 [compound 114]
1000 to 10000 | NCC(=O)Nc1cc(Nc2cc(-c3cc(Cl)ccc3F)nc3ccccc23)ccn1 [compound 115]
< 500 | Nc1ncnc(Nc2cc(-c3cc(C(F)(F)F)ccc3F)nc3ccccc23)n1 [compound 118]
< 500 | CN(C)CCCNc1cc(Nc2cc(-c3ccccc3F)nc3ccccc23)ccn1 [compound 121]
